The record followed here is patent US9096538B2, “Pharmaceutical comprising PPAR agonist” (Senju Pharmaceutical Co., Ltd., priority 2005, dated 2015).

For experiment [1], the system named is normal human corneal epithelial cell. Kind of experiment: Test Example 6: increase in cell number, normal human corneal epithelial cell, 48 hours (Cell Counting Kit-8). The class given is cell-based. To be noted: 10^−8 M, no addition group = 100%, average ± standard deviation, N = 4 to 5. As for the experimental part:
(§1) A normal human corneal epithelial cell (KURABO) was used.
As the test substance, the following compounds were used. • PPARδ Agonist: GW-501516 (Alexis), GW-0742 (Sigma-Aldrich)
Only basal medium (no addition group) • [2] Basal medium+GW-501516 (final concentration: 0.01 μM) • [3] Basal medium+GW-0742 (final concentration: 0.01 μM)

Experiment [2] has as its system rabbit corneal epithelial cell. The experiment can be described thus: Test Example 1: increase in cell number, cultured rabbit corneal epithelial cell (Cell Counting Kit-8). The class given is cell-based. To be noted: 48 hours, no addition group = 100%, average ± standard deviation, N = 5. As for the experimental part:
A male rabbit (Japanese white, […] LABES Co., Ltd.) was used. The experimental animal was used according to the International Guiding Principles for Biomedical Research Involving Animals.
A corneal epithelial cell was prepared from rabbit eyeballs. A cornea was excised from isolated eyeballs, and stored in Dulbecco's phosphate buffered saline (D-PBS; Invitrogen), and this was transferred to a clean bench. The following cell preparation procedures were all performed sterilely.
The isolated corneal segment was washed with D-PBS with 1% penicillin-streptomycin (Invitrogen) added thereto three times, and was transferred to a minimum essential medium (MEM; Invitrogen). A corneal endothelial cell and a Descemet's membrane of the corneal segment immersed in MEM were peeled with a knife (Alcon) for ocular operation, and the corneal segment (corneal stroma and corneal epithelium) after peeling was transferred to MEM to which dispase II (Roche Diagnostics) had been added to 2.4 U/mL. This was incubated at 37° C. for 1 hour and, thereafter, the dispase II-treated corneal segment was transferred to MEM. The corneal epithelium of the corneal segment immersed in MEM was peeled with the knife for ocular operation, and the corneal segment residue (corneal stroma) was removed from MEM. The peeled corneal epithelial cell and the MEM containing same were recovered in a 50 mL centrifuge tube, subjected to centrifugation at 1,500 rpm for 5 minutes at room temperature. The supernatant was discarded to give a corneal epithelial cell layer. To the corneal epithelial cell layer was added 1 mL of trypsin-EDTA (Invitrogen) and, after thorough mixing, the cells were incubated at 37° C. for 5 minutes to dissociate adhesion between the cells. To this was added 9 mL of MEM containing 10% fetal bovine serum (FBS; Invitrogen) to stop the enzymatic reaction, and this was subjected again to centrifugation at room temperature and 1,500 rpm for 5 minutes to obtain the corneal epithelial cell layer. To the resulting corneal epithelial cell layer was added […] of a serum-free liquid medium for proliferating a normal rabbit corneal epithelial cell (RCGM2; Kurabo Industries LTD.) to suspend the cell, and this was seeded into a culture dish (IWAKI) for culturing a cell having a diameter of 10 cm, to which 9 mL of RCGM2 had been added. […] The culture medium was exchanged with a fresh culture medium every 48 hours until the test day.
As the test substance, the following compounds were used. • PPARα agonist: WY-14643 (Calbiochem) and fenofibrate (Sigma-Aldrich) • PPARδ agonist: L-165041 (Sigma-Aldrich)
(§2) For studying the effect of promoting cell proliferation by each test substance, a culture medium prepared by removing a mouse-derived epithelial growth factor (mEGF) attached to RCGM2, from RCGM2, was used as a basal medium, while as a positive control for confirming the effect of promoting cell proliferation, a medium with an mEGF added thereto (basal medium+10 ng/mL mEGF) was used according to instructions of an RCGM2 preparation protocol.
As a culture dish for a test of cell proliferation promotion, a 96-well culture dish for tissue culture (Corning) was used. On the day before the test, each 50 μL of 0.01% type I collagen (Nitta Gelatin Inc.) was dispensed into each well of the culture dish, and coating was performed at 4° C. until immediately before the test. On the test day, after a type I collagen solution was removed, the bottom of the culture dish was washed three times using D-PBS, and this was used in the test as a collagen-treated culture dish.
In the test, a rabbit corneal epithelial cell which had been cultured to subconfluent in a culture dish having a diameter of 10 cm was used. After the culture medium was removed, the bottom of the culture dish was washed two times using D-PBS, to this was added 1 mL of trypsin-EDTA, this was incubated at 37° C. for 5 minutes and thereby, the cell was peeled from the bottom of the culture dish. […]
Background: Tetrazolium assays rely on reduction of a dye to a coloured formazan, in cell work by metabolically active cells.

Experiment [3] has as its system monkey meibomian gland epithelial cell. The experiment can be described thus: Test Example 3: increase in cell number, cultured monkey meibomian gland epithelial cell (Cell Counting Kit-8). The class given is cell-based, cynomolgus monkey. Conditions: 48 + 48 hours; for Cell proliferation (%): no addition group = 100%, average ± standard deviation, N = 5. On the procedure:
A female cynomolgus monkey (Environmental Biological Life Science Research Center) was used. The experimental animal was used according to the International Guiding Principles for Biomedical Research Involving Animals.
A meibomian gland epithelial cell was prepared from a monkey eyelid. An eyelid was isolated, and stored in Dulbecco's phosphate buffered saline (D-PBS; Invitrogen), and this was transferred to a clean bench. The following cell preparation procedures were all performed sterilely.
After the isolated eyelid was immersed in 80% ethanol for 30 seconds, the eyelid was washed with D-PBS with 1% penicillin-streptomycin (Invitrogen) added thereto three times, and transferred to a minimum essential medium (MEM; Invitrogen). A fat tissue and a muscle tissue surrounding a meibomian gland tissue were removed under a stereomicroscope, and this was transferred to MEM containing 0.475 U/mL of collagenase A (Roche Diagnostics) and 2.4 U/mL of dispase II (Roche Diagnostics), and incubated at 37° C. overnight. After completion of incubation, the enzyme-treated tissue was placed again under the stereomicroscope, eyelashes and an eyelid connective tissue were removed, and a meibomian gland tissue was isolated. To the isolated gland tissue was added 1 mL of trypsin-EDTA (Invitrogen), and this was incubated at 37° C. for 5 minutes. After incubation, to this was added 9 mL of MEM containing 10% FBS to stop the enzymatic reaction, then, suction and exhaustion were repeated five times using a 10 mL pipette and, further, five times using an injection syringe equipped with a 21 G injection needle to disperse tissue-constituting cells. […] The cell suspension which had passed through the filter was recovered in a 50 mL centrifuge tube, and subjected to centrifugation at room temperature and 1,500 rpm for 5 minutes. To a cell layer containing an objective cell obtained by centrifugation was added 80 μL of D-PBS containing 0.5% bovine serum albumin (BSA; Sigma-Aldrich) to sufficiently suspend the cell, to this was added 20 μL of Anti-Fibroblast Microbeads (Militenyi Biotec), and this was allowed to stand at room temperature for 30 minutes. After completion of the reaction with an antibody, to this was added 2 mL of D-PBS containing 0.5% BSA, and this was subjected again to centrifugation at room temperature and 1,500 rpm for 5 minutes. To a cell layer containing an objective cell obtained by centrifugation was added 1 mL of D-PBS containing 0.5% BSA to sufficiently suspend the cell, and this was added dropwise to an LD column (Militenyi Biotec) equilibrated in advance using a column washing solution (D-PBS containing 2 mM EDTA (Dojindo Laboratories) and 0.5% BSA). Then, 2 mL of the column washing solution was added dropwise to the LD column. […] The cell recovered in the centrifuge tube was subjected again to centrifugation at room temperature and 1,500 rpm for 5 minutes to remove the supernatant. To this precipitation was added 1 mL of Defined Keratinocyte-Serum Free Medium (DK-SFM; Invitrogen) to suspend the cell and thereby, a meibomian gland epithelial cell suspension was prepared. The prepared cell was seeded on a culture dish (IWAKI) for cell culturing having a diameter of 3.5 cm which had been coated with a type I collagen solution (Nitta Gelatin Inc.) in advance, and to which 3 mL of DK-SFM had been added. The seeded cell was cultured in an incubator (SANYO) set at 37° C., 5% CO2, 95% air, and 100% humidity, and the culture medium was exchanged with a fresh culture medium every 48 hours until the test day.
Each test substance was dissolved in ethanol (Wako Pure Chemical Industries, Ltd.) to a 200-fold concentration of a final concentration in the culture medium, and this was stored at −80° C. until immediately before use.
As a culture dish for a cell proliferation promotion test, a 96-well culture dish for tissue culture (Corning) was used.

Experiment [4] deals with normal human corneal epithelial cell. Kind of experiment: Test Example 5: increase in cell number, normal human corneal epithelial cell, 24 hours (Cell Counting Kit-8). The class given is cell-based. Conditions: mEGF 1 ng/mL, no addition group = 100%, average ± standard deviation, N = 3 to 4. As for the experimental part: as §1
As the test substance, the following compounds were used. PPARδ agonist: L-165041 (Sigma-Aldrich), GW-501516 (Alexis)
In addition, as a positive control for confirming the cell proliferation promoting effect, a medium in which a mouse-derived epithelial growth factor (mEGF) contained in an HCGS proliferation additive set (KURABO) was added to a basal medium (basal medium+1 ng/mL mEGF) was used.
This cell suspension was seeded on a fibronectin-coated multiwell plate (24 well, BECTON DICKINSON) so that the cell number became 2×10^4 cells/500 μL/well (since the bottom area is 2 cm^2, the number is 1×10^4 cells/cm^2).
Further, 24 hours thereafter, the culture medium was exchanged with each 400 μL of the following culture media. • [1] Only basal medium (no addition group) • [2] Basal medium+mEGF (final concentration: 1 ng/mL; positive control group) • [3] Basal medium+L-165041 (final concentration: 0.01 μM and 0.1 μM) • [4] Basal medium+GW-501516 (final concentration: 0.001 μM and 0.01 μM)

In experiment [5] the test system is rabbit corneal epithelial cell. Kind of experiment: Test Example 2: increase in cell number, cultured rabbit corneal epithelial cell, 120 hours (Cell Counting Kit-8). The class given is cell-based. To be noted: mEGF 10 ng/mL, no addition group = 100%, average ± standard deviation, N = 5. On the procedure: A male rabbit (Japanese white, weight: about 1.5 kg, […] LABES Co., Ltd.) was used. The experimental animal was used according to the International Guiding Principles for Biomedical Research Involving Animals.
A rabbit corneal epithelial cell was prepared using the same process as that of (Test example 1).
As the test substance, the following compounds were used. • PPARδ agonist: L-165041 (Sigma-Aldrich) and GW-501516 (Alexis)
as §2
Collagen treatment of the culture dish was performed using the same process as that of (Test Example1).
In the test, a rabbit corneal epithelial cell which had been cultured to subconfluent in a culture dish having a diameter of 10 cm was used. After the culture medium was removed, the bottom of the culture dish was washed two times using D-PBS, to this was added 1 mL of trypsin-EDTA, this was incubated at 37° C. for 5 minutes and thereby, the cell was peeled from the bottom of the culture dish. After incubation, 9 mL of MEM containing 10% FBS was added to the culture dish to stop the enzymatic reaction, and this was subjected to centrifugation at room temperature and 1,500 rpm for 5 minutes to obtain a corneal epithelial cell layer. To the resulting cell was added an appropriate amount of RCGM2 to a cell concentration of 1×10^5 cells/mL to suspend the cell. Each 64 μL of this cell suspension was dispensed in each well at the cell number per bottom area (0.32 cm^2) of the collagen-treated 96-well culture dish for tissue culture of […]. […] After 24 hours from cell seeding, the culture medium was discarded, and each 100 μL of the following culture media were freshly dispensed into each well of the culture dish. • [1] Only basal medium (no addition group) • [2] Basal medium+mEGF (final concentration: 10 ng/mL; positive control group) • [3] Basal medium+L-165041 (final concentration: 0.1 μM and 1 μM) • [4] Basal medium+GW-501516 (final concentration: 0.01 μM and 0.1 μM)
The culture supernatant of each well was removed every 48 hours from exchange of the culture medium containing a test substance, and each 100 μL of the freshly prepared culture medium was dispensed into each well.

Take `Cc1cc(SCc2sc(-c3ccc(C(F)(F)F)c(F)c3)nc2C)ccc1OCC(=O)O` [GW-0742, (4-(((2-(3-fluoro-4-(trifluoromethyl)phenyl)-4-methyl-5-thiazolyl)methyl)thio)-2-methylphenoxy)acetic acid]: the “Cell proliferation (%)” value in experiment [1] is listed as 124.1 ± 13.5%.

Turning to `Cc1cccc(Nc2cc(Cl)nc(SCC(=O)O)n2)c1C` [WY-14643, ((4-chloro-6-((2,3-dimethylphenyl)amino)-2-pyrimidinyl)thio)acetic acid], the “Cell proliferation (%)” value in experiment [2] (10^−6 M) is 155.5 ± 9.4%; in experiment [2] (10^−7 M), 148.9 ± 15.0%.

Turning to `CC(C)OC(=O)C(C)(C)Oc1ccc(C(=O)c2ccc(Cl)cc2)cc1` [fenofibrate, 1-methylethyl 2-(4-(4-chlorobenzoyl)phenoxy)-2-methylpropionate], the “Cell proliferation (%)” value in experiment [3] (10^−5 M) came to 127.8 ± 5.2%; in experiment [3] (10^−6 M), 114.5 ± 4.5%; in experiment [2] (10^−5 M) it was 147.0 ± 3.2%; in experiment [2] (10^−6 M), 147.3 ± 11.8%. Also, the “cell proliferation compared to the no addition group (in words)” value in experiment [3] (p<0.01 where significant) is listed as “significantly higher than in the no addition group”.

Consider `Cc1c(C)c2c(c(C)c1O)CCC(C)(COc1ccc(CC3SC(=O)NC3=O)cc1)O2` (stereo not shown) [troglitazone], for which the “Cell proliferation (%)” value in experiment [3] (10^−6 M) was 99.9 ± 1.9%; in experiment [3] (10^−7 M) it was 101.6 ± 4.0%.

On to “mEGF: mouse-derived epithelial growth factor, positive control for cell proliferation (NSYPGCPSSYDGYCLNGGVCMHIESLDSYTCNCVIGYSGDRCQTRDLRWWELR; not fully specified; Epidermal growth factor; UniProt P01132 977-1029, looked up)”, for which the “Cell proliferation (%)” value came to 112.1 ± 1.5% in experiment [4], 222.1 ± 50.9% in experiment [5] and 144.1 ± 23.1% in experiment [2] (mEGF 10 ng/mL).
